Measured values from BigSolDB 2.1.

Nc1cnc(Cl)cn1
solubility (mole fraction) (in ethanol, 278.15 K): 0.00222 | solubility (mole fraction) (in ethanol, 283.15 K): 0.00302 | solubility (mole fraction) (in ethanol, 288.15 K): 0.00388 | solubility (mole fraction) (in ethanol, 293.15 K): 0.00477 | solubility (mole fraction) (in ethanol, 298.15 K): 0.0058 | solubility (mole fraction) (in ethanol, 303.15 K): 0.00692 | solubility (mole fraction) (in ethanol, 308.15 K): 0.00813 | solubility (mole fraction) (in ethanol, 313.15 K): 0.00961 | solubility (mole fraction) (in ethanol, 318.15 K): 0.0111 | solubility (mole fraction) (in ethanol, 323.15 K): 0.0131 | solubility (mole fraction) (in ethylene glycol, 278.15 K): 0.000321 | solubility (mole fraction) (in ethylene glycol, 283.15 K): 0.000398 | solubility (mole fraction) (in ethylene glycol, 288.15 K): 0.000506 | solubility (mole fraction) (in ethylene glycol, 293.15 K): 0.000615 | solubility (mole fraction) (in ethylene glycol, 298.15 K): 0.000747 | solubility (mole fraction) (in ethylene glycol, 303.15 K): 0.000868 | solubility (mole fraction) (in ethylene glycol, 308.15 K): 0.00102 | solubility (mole fraction) (in ethylene glycol, 313.15 K): 0.00117 | solubility (mole fraction) (in ethylene glycol, 318.15 K): 0.00136 | solubility (mole fraction) (in ethylene glycol, 323.15 K): 0.00157 | solubility (mole fraction) (in methanol, 278.15 K): 0.00319 | solubility (mole fraction) (in methanol, 283.15 K): 0.00442 | solubility (mole fraction) (in methanol, 288.15 K): 0.00573 | solubility (mole fraction) (in methanol, 293.15 K): 0.0073 | solubility (mole fraction) (in methanol, 298.15 K): 0.00915 | solubility (mole fraction) (in methanol, 303.15 K): 0.0109 | solubility (mole fraction) (in methanol, 308.15 K): 0.0127 | solubility (mole fraction) (in methanol, 313.15 K): 0.0149 | solubility (mole fraction) (in methanol, 318.15 K): 0.0173 | solubility (mole fraction) (in methanol, 323.15 K): 0.0201 | solubility (mole fraction) (in n-propanol, 278.15 K): 0.000781 | solubility (mole fraction) (in n-propanol, 283.15 K): 0.001 | solubility (mole fraction) (in n-propanol, 288.15 K): 0.00126 | solubility (mole fraction) (in n-propanol, 293.15 K): 0.00152 | solubility (mole fraction) (in n-propanol, 298.15 K): 0.00181 | solubility (mole fraction) (in n-propanol, 303.15 K): 0.00214 | solubility (mole fraction) (in n-propanol, 308.15 K): 0.00252 | solubility (mole fraction) (in n-propanol, 313.15 K): 0.00291 | solubility (mole fraction) (in n-propanol, 318.15 K): 0.00334 | solubility (mole fraction) (in n-propanol, 323.15 K): 0.00383 | solubility (mole fraction) (in water, 278.15 K): 3.69e-05 | solubility (mole fraction) (in water, 283.15 K): 4.76e-05 | solubility (mole fraction) (in water, 288.15 K): 6.03e-05 | solubility (mole fraction) (in water, 293.15 K): 7.35e-05 | solubility (mole fraction) (in water, 298.15 K): 8.88e-05 | solubility (mole fraction) (in water, 303.15 K): 0.000106 | solubility (mole fraction) (in water, 308.15 K): 0.000123 | solubility (mole fraction) (in water, 313.15 K): 0.000141 | solubility (mole fraction) (in water, 318.15 K): 0.000161 | solubility (mole fraction) (in water, 323.15 K): 0.000182
